According to PubChem BioAssay AID2060347 (Molecular Pharmacology Branch, DTP, NCI, 2025):
pIC50: −log10 of the molar value.

Test system: 817829-284-R-J1-PDC spheroids with HUVEC/MSC, viability
Experiment: Anticancer human tumor 817829-284-R-J1-PDC patient-derived colon adenocarcinoma cell line growth inhibition [TAK]
Settings: for pIC50: curve of first compound; for viability, T/C: stronger effect = lower value; active = viability on the fitted dose curve at most 10% of control; inactive = the rest
Excerpt: Combinatorial screen of targeted agents with TAK-243 and ipatasertib in multi-cell type tumor spheroids
A high-throughput screen of multi-cell type tumor spheroids was designed to identify active combinations of targeted small molecules and TAK-243 or ipatasertib. Complex spheroids include a stromal component modeled by human endothelial cells (HUVEC) and fibroblasts modeled by human mesenchymal stem cells (MSCs). The concentration ranges selected for each drug and investigational agent were based upon clinically achievable concentrations if the clinical Cmax of the agent was known.
Compounds. The drugs and investigational agents: TAK-243 (785004), ipatasertib (767898), everolimus (733504), selumetinib (741078), bortezomib (756655), trametinib (758246), ixazomib (758254), vemurafenib (761431), dabrafenib (764134), sapanisertib (764658), alpelisib (765974), and copanlisib (816437), were obtained from the National Cancer Institute (NCI) Developmental Therapeutics Program Chemical Repository. The FDA-approved anticancer drug set is available from the NCI Developmental Therapeutics Program. […] The stock solutions were prepared in dimethyl sulfoxide (DMSO, Sigma-Aldrich, St. Louis, MO, cat. D2650) at 800-fold the tested concentration and stored at -70 degrees C prior to their use. All drugs and investigational agents were tested over a range starting from a high concentration at or near the clinical Cmax and decreasing in half-log increments. If the clinical Cmax for an agent had not been determined, the highest concentration tested was 10 microM.
NCI60 Cell Culture. NCI60 cell lines were obtained from the NCI Developmental Therapeutics Program Tumor Repository. For each lot of cells, the Repository performed Applied Biosystems AmpFLSTR Identifiler testing with PCR amplification to confirm consistency with the published Identifier STR profile for each cell line. Cells were kept in continuous culture for no more than 20 passages. The optimal seeding densities for each of the cell lines at each time point assessed were determined prior to performing the concentration response studies. Briefly, the NCI60 human tumor lines were grown as monolayers in RPMI 1640 medium supplemented with 10% FBS and 2 mmol/L L-glutamine.
An additional 2 lines were from the NCI60 cell line panel including melanomas, MALME-3M and SK-MEL-2. Pooled donor human umbilical vein endothelial cells (HUVEC, Lonza, cat. CC-2519) and human mesenchymal stem cells (hMSC, Lonza, cat. PT-2501) were purchased from Lonza (Walkersville, MD).
PDMR cell lines were grown in complete medium (DC medium): Dulbecco's modified Eagle's medium (DMEM)/F12 supplemented with 5% fetal bovine serum (FBS), 2 mM L-glutamine, 100 U/mL penicillin and 100 µg/ml streptomycin, 0.4 µg/ml hydrocortisone, 10 ng/ml epidermal growth factor (EGF) recombinant human protein, 24 µg/mL adenine, and 0.1 mg/mL primocin. During culture from frozen stock vials, PDMR cells were cultured in the same medium containing 10 µM Y-27632 (see Table 3). The PDCs were cultured in complete DMEM/F12 media without 10 microM Y-27632 dihydrochloride for at least two passages prior to the screen. The pooled donor HUVEC and hMSC were cultured in endothelial cell growth medium 2 (PromoCell, Heidelberg, Germany, cat. C-22011) and mesenchymal stem cell growth medium 2 (PromoCell, cat. C-28009), respectively. For all experiments, HUVEC and hMSC were used at passages </=5.
For the pre-screen, cell seeding densities were determined from a titration spanning the range from 5,000 to 313 cells per well. The mct-spheroids including 60% malignant cells, 25% HUVEC and 15% MSC dispensed as a mixture into U-bottom Ultra-Low Attachment 384-well plates (Corning, NY)
High-throughput Drug Combination Screening.
Prior to their inoculation into 384-well plates, malignant cells, HUVEC, and hMSC were removed from T flasks using TrypLE express (Thermo Fisher Scientific, cat. 12605036) and harvested by centrifugation for 5 min at 233 x g. […]

CC(=O)Nc1cccc(-n2c(=O)n(C3CC3)c(=O)c3c(Nc4ccc(I)cc4F)n(C)c(=O)c(C)c32)c1 + CC(C)NCC(C(=O)N1CCN(c2ncnc3c2C(C)CC3O)CC1)c1ccc(Cl)cc1
9.81: pIC50 (second compound 0.3 µM)
inactive: viability, T/C (second compound 0.3 µM, first compound 94.9 pM) 60% | viability, T/C (second compound 0.3 µM, first compound 0.0003 µM) 36.2% | viability, T/C (second compound 0.3 µM, first compound 0.000949 µM) 22.1% | viability, T/C (second compound 0.3 µM, first compound 0.003 µM) 24.3% | viability, T/C (second compound 0.3 µM, first compound 0.00949 µM) 11.9% | viability, T/C (second compound 0.949 µM, first compound 94.9 pM) 19.3% | viability, T/C (second compound 0.949 µM, first compound 0.0003 µM) 19.1% | viability, T/C (second compound 0.949 µM, first compound 0.000949 µM) 13.8% | viability, T/C (second compound 0.949 µM, first compound 0.003 µM) 12.8% | viability, T/C (second compound 0.949 µM, first compound 0.00949 µM) 11.4% | viability, T/C (second compound 0.949 µM, first compound 0.03 µM) 10.6%
active: viability, T/C (second compound 0.3 µM, first compound 0.03 µM) 7.59% | viability, T/C (second compound 3 µM, first compound 94.9 pM) 9.84% | viability, T/C (second compound 3 µM, first compound 0.0003 µM) 8.37% | viability, T/C (second compound 3 µM, first compound 0.000949 µM) 8.93% | viability, T/C (second compound 3 µM, first compound 0.003 µM) 8.79% | viability, T/C (second compound 3 µM, first compound 0.00949 µM) 7.98% | viability, T/C (second compound 3 µM, first compound 0.03 µM) 7.61% | viability, T/C (second compound 9.49 µM, first compound 94.9 pM) 6.42% | viability, T/C (second compound 9.49 µM, first compound 0.0003 µM) 5.85% | viability, T/C (second compound 9.49 µM, first compound 0.000949 µM) 5.02% | viability, T/C (second compound 9.49 µM, first compound 0.003 µM) 5.15% | viability, T/C (second compound 9.49 µM, first compound 0.00949 µM) 5.13% | viability, T/C (second compound 9.49 µM, first compound 0.03 µM) 4.15% | viability, T/C (second compound 30 µM, first compound 94.9 pM) 4.66% | viability, T/C (second compound 30 µM, first compound 0.0003 µM) 4.56% | viability, T/C (second compound 30 µM, first compound 0.000949 µM) 3.15% | viability, T/C (second compound 30 µM, first compound 0.003 µM) 3.45% | viability, T/C (second compound 30 µM, first compound 0.00949 µM) 2.76% | viability, T/C (second compound 30 µM, first compound 0.03 µM) 2.65%
> 10.02: pIC50 (second compound 0.949 µM) | pIC50 (second compound 3 µM) | pIC50 (second compound 9.49 µM) | pIC50 (second compound 30 µM)

CC(C)CC(NC(=O)C(Cc1ccccc1)NC(=O)c1cnccn1)B(O)O (stereo not given) + CC(C)NCC(C(=O)N1CCN(c2ncnc3c2C(C)CC3O)CC1)c1ccc(Cl)cc1
active: viability, T/C (second compound 0.3 µM, first compound 0.01 µM) 0.6% | viability, T/C (second compound 0.949 µM, first compound 0.01 µM) 0.35% | viability, T/C (second compound 3 µM, first compound 0.01 µM) 0.2% | viability, T/C (second compound 9.49 µM, first compound 0.001 µM) 13.6% | viability, T/C (second compound 9.49 µM, first compound 0.00316 µM) 8.78% | viability, T/C (second compound 9.49 µM, first compound 0.01 µM) 0.15% | viability, T/C (second compound 30 µM, first compound 0.0001 µM) 8.27% | viability, T/C (second compound 30 µM, first compound 0.000316 µM) 10.2% | viability, T/C (second compound 30 µM, first compound 0.001 µM) 9.25% | viability, T/C (second compound 30 µM, first compound 0.00316 µM) 6.13% | viability, T/C (second compound 30 µM, first compound 0.01 µM) 0.2%
8.37: pIC50 (second compound 0.949 µM)
8.31: pIC50 (second compound 0.3 µM)
inactive: viability, T/C (second compound 0.3 µM, first compound 31.6 pM) 108% | viability, T/C (second compound 0.3 µM, first compound 0.0001 µM) 104% | viability, T/C (second compound 0.3 µM, first compound 0.000316 µM) 105% | viability, T/C (second compound 0.3 µM, first compound 0.001 µM) 100% | viability, T/C (second compound 0.3 µM, first compound 0.00316 µM) 80.7% | viability, T/C (second compound 0.949 µM, first compound 31.6 pM) 88% | viability, T/C (second compound 0.949 µM, first compound 0.0001 µM) 60.8% | viability, T/C (second compound 0.949 µM, first compound 0.000316 µM) 64.6% | viability, T/C (second compound 0.949 µM, first compound 0.001 µM) 77.2% | viability, T/C (second compound 0.949 µM, first compound 0.00316 µM) 66.7% | viability, T/C (second compound 3 µM, first compound 31.6 pM) 29.4% | viability, T/C (second compound 3 µM, first compound 0.0001 µM) 22.9% | viability, T/C (second compound 3 µM, first compound 0.000316 µM) 29.9% | viability, T/C (second compound 3 µM, first compound 0.001 µM) 22.3% | viability, T/C (second compound 3 µM, first compound 0.00316 µM) 19.9% | viability, T/C (second compound 9.49 µM, first compound 31.6 pM) 12.7% | viability, T/C (second compound 9.49 µM, first compound 0.0001 µM) 13.2% | viability, T/C (second compound 9.49 µM, first compound 0.000316 µM) 11.6% | viability, T/C (second compound 30 µM, first compound 31.6 pM) 8.2%
> 10.50: pIC50 (second compound 3 µM) | pIC50 (second compound 9.49 µM) | pIC50 (second compound 30 µM)
